From the NIST ThermoML archive (doi:10.1016/j.fluid.2006.07.015)
± gives the expanded uncertainty stated by the source.

Test: activity coefficient (dimensionless); of the first substance listed, at infinite dilution; xn = mol fraction of the nth substance listed
Conditions: 101 kPa, Liquid, Chromatography, x1 = 0

Row | SMILES | activity coefficient (373.15 K) | activity coefficient (388.15 K) | activity coefficient (403.15 K) | activity coefficient (418.15 K) | activity coefficient (433.15 K)
1 | CCCCCCCCCCCC [dodecane] + CCCCCCCCCCCCCCCCCCC(CCCCCCCCCCCCCCCCCC)CCCCC(CCCCCCCCCCCCCCCCCC)CCCCCCCCCCCCCCCCCC | 0.456 ± 0.033 | 0.457 ± 0.033 | 0.459 ± 0.033 | 0.46 ± 0.033 | 0.462 ± 0.033
2 | CC#CCCC [2-hexyne] + CCCCCCCCCCCCCCCCCCC(CCCCCCCCCCCCCCCCCC)CCCCC(CCCCCCCCCCCCCCCCCC)CCCCCCCCCCCCCCCCCC | 0.378 ± 0.034 | 0.377 ± 0.034 | 0.377 ± 0.034 | 0.378 ± 0.034 | 0.38 ± 0.034
3 | CCCCCc1ccccc1 [pentylbenzene] + CCCCCCCCCCCCCCCCCCC(CCCCCCCCCCCCCCCCCC)CCCCC(CCCCCCCCCCCCCCCCCC)CCCCCCCCCCCCCCCCCC | 0.378 ± 0.034 | 0.385 ± 0.034 | 0.381 ± 0.034 | 0.38 ± 0.034 | 0.376 ± 0.034
4 | C1=CCCC=C1 [1,3-cyclohexadiene] + CCCCCCCCCCCCCCCCCCC(CCCCCCCCCCCCCCCCCC)CCCCC(CCCCCCCCCCCCCCCCCC)CCCCCCCCCCCCCCCCCC | 0.251 ± 0.036 | 0.253 ± 0.036 | 0.255 ± 0.036 | 0.252 ± 0.036 | 0.252 ± 0.036
5 | C#CCCCCC [1-heptyne] + CCCCCCCCCCCCCCCCCCC(CCCCCCCCCCCCCCCCCC)CCCCC(CCCCCCCCCCCCCCCCCC)CCCCCCCCCCCCCCCCCC | 0.411 ± 0.034 | 0.407 ± 0.034 | 0.401 ± 0.034 | 0.399 ± 0.034 | 0.398 ± 0.034
6 | CCCCCCc1ccccc1 [hexylbenzene] + CCCCCCCCCCCCCCCCCCC(CCCCCCCCCCCCCCCCCC)CCCCC(CCCCCCCCCCCCCCCCCC)CCCCCCCCCCCCCCCCCC | 0.397 ± 0.034 | 0.405 ± 0.034 | 0.401 ± 0.034 | 0.404 ± 0.034 | 0.401 ± 0.034
7 | C1CC[C@H]2CCCC[C@@H]2C1 [trans-decahydronaphthalene] + CCCCCCCCCCCCCCCCCCC(CCCCCCCCCCCCCCCCCC)CCCCC(CCCCCCCCCCCCCCCCCC)CCCCCCCCCCCCCCCCCC | 0.268 ± 0.036 | 0.279 ± 0.036 | 0.283 ± 0.036 | 0.28 ± 0.036 | 0.287 ± 0.036
8 | C1CCCCCCCCC1 [cyclodecane] + CCCCCCCCCCCCCCCCCCC(CCCCCCCCCCCCCCCCCC)CCCCC(CCCCCCCCCCCCCCCCCC)CCCCCCCCCCCCCCCCCC | 0.269 ± 0.036 | 0.281 ± 0.036 | 0.283 ± 0.036 | 0.287 ± 0.036 | 0.288 ± 0.036
9 | CCCCc1ccccc1 [butylbenzene] + CCCCCCCCCCCCCCCCCCC(CCCCCCCCCCCCCCCCCC)CCCCC(CCCCCCCCCCCCCCCCCC)CCCCCCCCCCCCCCCCCC | 0.357 ± 0.035 | 0.362 ± 0.035 | 0.359 ± 0.035 | 0.358 ± 0.035 | 0.354 ± 0.035
10 | C#CCCCCCCCC [1-decyne] + CCCCCCCCCCCCCCCCCCC(CCCCCCCCCCCCCCCCCC)CCCCC(CCCCCCCCCCCCCCCCCC)CCCCCCCCCCCCCCCCCC | 0.442 ± 0.033 | 0.446 ± 0.033 | 0.446 ± 0.033 | 0.446 ± 0.033 | 0.446 ± 0.033
11 | C[C@H]1CC[C@H](C)CC1 [trans-1,4-dimethylcyclohexane] + CCCCCCCCCCCCCCCCCCC(CCCCCCCCCCCCCCCCCC)CCCCC(CCCCCCCCCCCCCCCCCC)CCCCCCCCCCCCCCCCCC | 0.288 ± 0.036 | 0.295 ± 0.036 | 0.297 ± 0.036 | 0.298 ± 0.036 | 0.299 ± 0.036
12 | C=CCCCCCCCCCCCC [1-tetradecene] + CCCCCCCCCCCCCCCCCCC(CCCCCCCCCCCCCCCCCC)CCCCC(CCCCCCCCCCCCCCCCCC)CCCCCCCCCCCCCCCCCC | 0.475 ± 0.033 | 0.476 ± 0.033 | 0.475 ± 0.033 | 0.476 ± 0.033 | 0.475 ± 0.033
13 | C=CCCCCCCCC [1-decene] + CCCCCCCCCCCCCCCCCCC(CCCCCCCCCCCCCCCCCC)CCCCC(CCCCCCCCCCCCCCCCCC)CCCCCCCCCCCCCCCCCC | 0.411 ± 0.034 | 0.413 ± 0.034 | 0.413 ± 0.034 | 0.416 ± 0.034 | 0.418 ± 0.034
14 | C1CCCCC1 [cyclohexane] + CCCCCCCCCCCCCCCCCCC(CCCCCCCCCCCCCCCCCC)CCCCC(CCCCCCCCCCCCCCCCCC)CCCCCCCCCCCCCCCCCC | 0.25 ± 0.036 | 0.251 ± 0.036 | 0.246 ± 0.036 | 0.245 ± 0.036 | 0.247 ± 0.036
15 | CCCCCCCCCCC [undecane] + CCCCCCCCCCCCCCCCCCC(CCCCCCCCCCCCCCCCCC)CCCCC(CCCCCCCCCCCCCCCCCC)CCCCCCCCCCCCCCCCCC | 0.436 ± 0.033 | 0.438 ± 0.033 | 0.44 ± 0.033 | 0.442 ± 0.033 | 0.444 ± 0.033
16 | C1CCCCCCC1 [cyclooctane] + CCCCCCCCCCCCCCCCCCC(CCCCCCCCCCCCCCCCCC)CCCCC(CCCCCCCCCCCCCCCCCC)CCCCCCCCCCCCCCCCCC | 0.258 ± 0.036 | 0.264 ± 0.036 | 0.265 ± 0.036 | 0.262 ± 0.036 | 0.264 ± 0.036

Row | SMILES | activity coefficient (373.15 K) | activity coefficient (388.15 K) | activity coefficient (403.15 K) | activity coefficient (418.15 K) | activity coefficient (433.15 K)
17 | CCCCCCCCCC [decane] + CCCCCCCCCCCCCCCCCCC(CCCCCCCCCCCCCCCCCC)CCCCC(CCCCCCCCCCCCCCCCCC)CCCCCCCCCCCCCCCCCC | 0.418 ± 0.034 | 0.42 ± 0.034 | 0.421 ± 0.034 | 0.423 ± 0.034 | 0.425 ± 0.034
18 | CCCCCCCC [octane] + CCCCCCCCCCCCCCCCCCC(CCCCCCCCCCCCCCCCCC)CCCCC(CCCCCCCCCCCCCCCCCC)CCCCCCCCCCCCCCCCCC | 0.38 ± 0.034 | 0.381 ± 0.034 | 0.382 ± 0.034 | 0.384 ± 0.034 | 0.386 ± 0.034
19 | C1CC[C@H]2CCCC[C@H]2C1 [cis-decahydronaphthalene] + CCCCCCCCCCCCCCCCCCC(CCCCCCCCCCCCCCCCCC)CCCCC(CCCCCCCCCCCCCCCCCC)CCCCCCCCCCCCCCCCCC | 0.268 ± 0.036 | 0.278 ± 0.036 | 0.28 ± 0.036 | 0.275 ± 0.036 | 0.279 ± 0.036
20 | CCCC#CCCC [4-octyne] + CCCCCCCCCCCCCCCCCCC(CCCCCCCCCCCCCCCCCC)CCCCC(CCCCCCCCCCCCCCCCCC)CCCCCCCCCCCCCCCCCC | 0.436 ± 0.033 | 0.429 ± 0.034 | 0.424 ± 0.034 | 0.421 ± 0.034 | 0.416 ± 0.034
21 | CCCCCCCCCCCCC [tridecane] + CCCCCCCCCCCCCCCCCCC(CCCCCCCCCCCCCCCCCC)CCCCC(CCCCCCCCCCCCCCCCCC)CCCCCCCCCCCCCCCCCC | 0.479 ± 0.033 | 0.479 ± 0.033 | 0.479 ± 0.033 | 0.48 ± 0.033 | 0.481 ± 0.033
22 | C#CCCCCCCC [1-nonyne] + CCCCCCCCCCCCCCCCCCC(CCCCCCCCCCCCCCCCCC)CCCCC(CCCCCCCCCCCCCCCCCC)CCCCCCCCCCCCCCCCCC | 0.445 ± 0.033 | 0.443 ± 0.033 | 0.438 ± 0.033 | 0.431 ± 0.034 | 0.425 ± 0.034
23 | c1ccccc1 [benzene] + CCCCCCCCCCCCCCCCCCC(CCCCCCCCCCCCCCCCCC)CCCCC(CCCCCCCCCCCCCCCCCC)CCCCCCCCCCCCCCCCCC | 0.269 ± 0.036 | 0.266 ± 0.036 | 0.263 ± 0.036 | 0.26 ± 0.036 | 0.258 ± 0.036
24 | C#CCCCC [1-hexyne] + CCCCCCCCCCCCCCCCCCC(CCCCCCCCCCCCCCCCCC)CCCCC(CCCCCCCCCCCCCCCCCC)CCCCCCCCCCCCCCCCCC | 0.39 ± 0.034 | 0.378 ± 0.034 | 0.37 ± 0.034 | 0.364 ± 0.035 | 0.36 ± 0.035
25 | C=CCCCCCCC [1-nonene] + CCCCCCCCCCCCCCCCCCC(CCCCCCCCCCCCCCCCCC)CCCCC(CCCCCCCCCCCCCCCCCC)CCCCCCCCCCCCCCCCCC | 0.392 ± 0.034 | 0.394 ± 0.034 | 0.395 ± 0.034 | 0.396 ± 0.034 | 0.398 ± 0.034
26 | CCc1ccccc1 [ethylbenzene] + CCCCCCCCCCCCCCCCCCC(CCCCCCCCCCCCCCCCCC)CCCCC(CCCCCCCCCCCCCCCCCC)CCCCCCCCCCCCCCCCCC | 0.314 ± 0.035 | 0.315 ± 0.035 | 0.313 ± 0.035 | 0.304 ± 0.035 | 0.304 ± 0.035
27 | CCCCCCC [heptane] + CCCCCCCCCCCCCCCCCCC(CCCCCCCCCCCCCCCCCC)CCCCC(CCCCCCCCCCCCCCCCCC)CCCCCCCCCCCCCCCCCC | 0.361 ± 0.035 | 0.363 ± 0.035 | 0.365 ± 0.035 | 0.367 ± 0.034 | 0.37 ± 0.03
28 | CC1CCCCC1 [methylcyclohexane] + CCCCCCCCCCCCCCCCCCC(CCCCCCCCCCCCCCCCCC)CCCCC(CCCCCCCCCCCCCCCCCC)CCCCCCCCCCCCCCCCCC | 0.267 ± 0.036 | 0.273 ± 0.036 | 0.273 ± 0.036 | 0.272 ± 0.036 | 0.275 ± 0.036
29 | CCCCCC [hexane] + CCCCCCCCCCCCCCCCCCC(CCCCCCCCCCCCCCCCCC)CCCCC(CCCCCCCCCCCCCCCCCC)CCCCCCCCCCCCCCCCCC | 0.344 ± 0.035 | 0.346 ± 0.035 | 0.348 ± 0.035 | 0.351 ± 0.035 | 0.355 ± 0.035
30 | Cc1ccccc1 [toluene] + CCCCCCCCCCCCCCCCCCC(CCCCCCCCCCCCCCCCCC)CCCCC(CCCCCCCCCCCCCCCCCC)CCCCCCCCCCCCCCCCCC | 0.284 ± 0.036 | 0.284 ± 0.036 | 0.282 ± 0.036 | 0.278 ± 0.036 | 0.275 ± 0.036
31 | C1CCC2CCCC2C1 (stereo not given) [1H-indene, octahydro-] + CCCCCCCCCCCCCCCCCCC(CCCCCCCCCCCCCCCCCC)CCCCC(CCCCCCCCCCCCCCCCCC)CCCCCCCCCCCCCCCCCC | 0.26 ± 0.036 | 0.268 ± 0.036 | 0.269 ± 0.036 | 0.266 ± 0.036 | 0.27 ± 0.036
